What was measured:
BIR2 domain of XIAP = BIR2 domain of XIAP (Homo sapiens (Human), UniProt P98170, C202A/C213G); experiment: TR-FRET assay for BIR2: inhibition of binding of XIAP BIR2 domain to Peptide A (SMAC-derived peptide); conditions: 6× His-tagged BIR2 domain (aa 124-240 of XIAP) 10 nM, Peptide A 20 nM
Description: TR-FRET Assay for BIR2 and BIR3
The peptides were labeled with the fluorescent tags FITC or TAMRA and Kd values were determined by fluorescence polarization assay. […] The peptide sequence was derivatized with biotin to provide […]-(ε-biotin)-OH 1:2 TFA as the substrate for the TR-FRET assay.
The XIAP protein sequence was obtained from the SWISS-PROT protein sequence database and the BIR2 and BIR3 domains were derived from that. The sequence of the BIR2 domain used for the TR-FRET assay is […].
Time-resolved fluorescence resonance energy transfer (TR-FRET) signals were measured 1 hour later at room temperature. Test compound potency was assessed at 10 serially diluted concentrations. Percentage of inhibition at each concentration was determined to generate an IC50 value for each test compound.

BIR3 domain of XIAP = BIR3 domain of XIAP (Homo sapiens (Human), UniProt P98170); experiment: TR-FRET assay for BIR3: inhibition of binding of XIAP BIR3 domain to Peptide A (SMAC-derived peptide); conditions: 6× His-tagged BIR3 domain (aa 241-356 of XIAP) 10 nM, Peptide A 20 nM
Chain of BIR3 domain of XIAP (P98170 other isoform, or with tags, fused parts or gaps): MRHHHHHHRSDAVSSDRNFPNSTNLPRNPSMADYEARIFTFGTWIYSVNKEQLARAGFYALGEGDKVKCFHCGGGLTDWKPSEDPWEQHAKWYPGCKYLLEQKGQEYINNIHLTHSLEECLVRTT

Chain of BIR2 domain of XIAP (P98170 other isoform, or with tags, fused parts or gaps, stated change not applied): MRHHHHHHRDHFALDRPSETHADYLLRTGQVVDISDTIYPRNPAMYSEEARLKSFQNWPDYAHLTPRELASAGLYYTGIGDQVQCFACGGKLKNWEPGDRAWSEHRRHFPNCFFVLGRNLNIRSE

| IC50 (BIR2 domain of XIAP) | IC50 (BIR3 domain of XIAP) | SMILES |
| --- | --- | --- |
| 1.38 nM | > 5480 nM | CN[C@@H](C)C(=O)N[C@H]1CN(C(=O)c2ccc(C(=O)N3C[C@H](NC(=O)[C@H](C)NC)C(=O)N(Cc4c(OC)ccc5cc(Br)ccc45)c4ccccc43)c(C)c2)c2ccccc2N(Cc2c(OC)ccc3cc(Br)ccc23)C1=O [Ex 10, (2S)-N-[(3S)-5-[(6-Bromo-2-methoxy-1-naphthyl)methyl]-1-[4-[(3S)-5-[(6-bromo-2-methoxy-1-naphthyl)methyl]-3-[[(2S)-2-(methylamino)propanoyl]amino]-4-oxo-2,3-dihydro-1,5-benzodiazepine-1-carbonyl]-3-methyl-benzoyl]-4-oxo-2,3-dihydro-1,5-benzodiazepin-3-yl]-2-(methylamino)propanamide] |
| 1.32 nM | > 5480 nM | CN[C@@H](C)C(=O)N[C@H]1CN(C(=O)c2cncc(C(=O)N3C[C@H](NC(=O)[C@H](C)NC)C(=O)N(Cc4c(OC)ccc5cc(Br)ccc45)c4ccccc43)c2)c2ccccc2N(Cc2c(OC)ccc3cc(Br)ccc23)C1=O [Ex 8, (2S)-N-[(3S)-5-[(6-Bromo-2-methoxy-1-naphthyl)methyl]-1-[5-[(3S)-5-[(6-bromo-2-methoxy-1-naphthyl)methyl]-3-[[(2S)-2-(methylamino)propanoyl]amino]-4-oxo-2,3-dihydro-1,5-benzodiazepine-1-carbonyl]pyridine-3-carbonyl]-4-oxo-2,3-dihydro-1,5-benzodiazepin-3-yl]-2-(methylamino)propanamide] |
| 0.801 nM | > 5480 nM | CN[C@@H](C)C(=O)N[C@H]1CN(C(=O)c2cc(C)c(C(=O)N3C[C@H](NC(=O)[C@H](C)N)C(=O)N(Cc4c(OC)ccc5cc(Br)ccc45)c4ccccc43)cc2C)c2ccccc2N(Cc2c(OC)ccc3cc(Br)ccc23)C1=O [Ex 13, (2S)-2-Amino-N-[(3S)-5-[(6-bromo-2-methoxy-1-naphthyl)methyl]-1-[4-[(3S)-5-[(6-bromo-2-methoxy-1-naphthyl)methyl]-3-[[(2S)-2-(methylamino)propanoyl]amino]-4-oxo-2,3-dihydro-1,5-benzodiazepine-1-carbonyl]-2,5-dimethyl-benzoyl]-4-oxo-2,3-dihydro-1,5-benzodiazepin-3-yl]propanamide] |
| 0.871 nM | > 5480 nM | CN[C@@H](C)C(=O)N[C@H]1CN(C(=O)CCCCCCC(=O)N2C[C@H](NC(=O)[C@H](C)NC)C(=O)N(Cc3c(OC)ccc4cc(Br)ccc34)c3ccccc32)c2ccccc2N(Cc2c(OC)ccc3cc(Br)ccc23)C1=O [Ex 18, (2S)-N-[(3S)-5-[(6-Bromo-2-methoxy-1-naphthyl)methyl]-1-[8-[(3S)-5-[(6-bromo-2-methoxy-1-naphthyl)methyl]-3-[[(2S)-2-(methylamino)propanoyl]amino]-4-oxo-2,3-dihydro-1,5-benzodiazepin-1-yl]-8-oxo-octanoyl]-4-oxo-2,3-dihydro-1,5-benzodiazepin-3-yl]-2-(methylamino)propanamide] |

From US9409888B2, “Dimeric compounds” (priority 2012, dated 2016)
